# Measurements as given in PMC3517606 (2012).
# Key:
# [1] = test system: HTG21 (DNA, G4) GGGTTAGGGTTAGGGTTAGGG; assay: luminescence titration, Scatchard; conditions: 100 mM KCl; 10 mM Tris-HCl, pH 7.4, 20 °C; 4 µM Ru; DNA concentration in base pairs
# [2] = test system: F21T (DNA, G4) GGGTTAGGGTTAGGGTTAGGG; assay: FRET melting; conditions: 60 mM KCl; 10 mM Tris-HCl, pH 7.4; 1 µM DNA, [Ru]:[DNA] = 2:1
# [3] = test system: HTG21 (DNA, G4) GGGTTAGGGTTAGGGTTAGGG; assay: absorption titration; conditions: 100 mM NaCl; 10 mM Tris-HCl, 25 °C
# [4] = test system: ds26 (DNA, duplex) CAATCGGATCGAATTCGATCCGATTG; assay: emission spectroscopy; conditions: 100 mM KCl; 10 mM Tris-HCl, pH 7.4; 4 µM Ru, 8 µM DNA
Kb [1] [M⁻¹],ΔTm [2] [°C],Kb [3] [M⁻¹],binding [4],Structure (SMILES)
720000,15.0,8.3e+06,weak,Oc1ccc(-c2nc3c4cccnc4c4ncccc4c3[nH]2)cc1.[Ru+2].c1cnc2c(c1)ccc1cccnc12.c1cnc2c(c1)ccc1cccnc12 [Δ-Ru]
930000,22.7,8.9e+06,weak,Oc1ccc(-c2nc3c4cccnc4c4ncccc4c3[nH]2)cc1.[Ru+2].c1cnc2c(c1)ccc1cccnc12.c1cnc2c(c1)ccc1cccnc12 [Λ-Ru]
910000,18.4,–,weak,Oc1ccc(-c2nc3c4cccnc4c4ncccc4c3[nH]2)cc1.[Ru+2].c1cnc2c(c1)ccc1cccnc12.c1cnc2c(c1)ccc1cccnc12 [Λ/Δ-Ru]
